Experimental data from US20250092065A1, “2-(INDAZOL-5-YL)-6-(PIPERIDIN-4-YL)-1,7-NAPHTHYRIDINE DERIVATIVES AND RELATED COMPOUNDS AS MODULATORS FOR SPLICING NUCLEIC ACIDS AND FOR THE TREATMENT OF PROLIFERATIVE DISEASES” (REMIX THERAPEUTICS INC., priority 2022, published 2025).
pIC50: −log10 of the molar value. Like-named read-outs stand apart in the source and are kept apart here.

Tests used:
Format in all cases: cell-based, human
HTT mRNA = experiment: RT-qPCR splicing assay, HTT mRNA canonical (CJ) and alternative (AJ) junction; details: Homo sapiens
Procedure, shortened: (§1)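 A673 or K562 cells treated 24 h at 37 °C with an 11-point 3-fold dilution series (top 10 uM, DMSO ≤0.25%). Lysates went directly to one-step RT-qPCR quantifying canonical (CJ) and alternative-exon (AJ) junctions, normalized to GAPDH, GUSB or PPIA. Values from ΔΔCt versus DMSO, RQ = 2^(−ΔΔCt), expressed as percentage response.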

MYB = experiment: HiBiT protein abundance assay, MYB (K562 HiBiT knock-in); details: HiBiT knock-in K562 cells, 24 hours, top dose 10 μM
Procedure, shortened: (§2)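 Steps: seed HiBiT knock-in K562 cells; add compound in 10-point 3-fold series from 10 μM final; incubate 24 h, 37 °C; add lytic HiBiT reagent, shake 5 min, wait 10 min; read luminescence. Normalize to parental K562 and DMSO controls, fit 4PL, take IC50.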

HTT = experiment: HiBiT protein abundance assay, HTT (K562 HiBiT knock-in); details: HiBiT knock-in K562 cells, 24 hours, top dose 10 μM
Procedure, shortened: as §2

MYB mRNA = experiment: RT-qPCR splicing assay, MYB mRNA canonical (CJ) and alternative (AJ) junction; details: Homo sapiens
Procedure, shortened: as §1

Target C = experiment: HiBiT protein abundance assay, Target C (K562 HiBiT knock-in); details: HiBiT knock-in K562 cells, 24 hours, top dose 10 μM
Procedure, shortened: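 K562 HiBiT knock-in cells (10000/well) were treated 24 h at 37° C with a 10-point 3-fold dilution series (top 10 μM final, ≤0.25% DMSO). HiBiT luminescence was read after lytic LgBiT detection. Percent response used unmodified K562 and DMSO-treated knock-in controls, and IC50 came from a four-parameter fit at 50% of untreated.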

pIC50 (HTT mRNA; RT-qPCR, HTT canonical junction mRNA decrease, read-out: HTT CJ (decrease in canonical junction mRNA, IC50)): > 7.00 | pIC50 (HTT mRNA; canonical junction qPCR panel, Table 4, read-out: HTT IC50 (decrease in CJ mRNA levels)): > 7.00 | pIC50 (MYB): > 7.00 | pIC50 (HTT): > 7.00 | pIC50 (MYB mRNA; RT-qPCR, MYB canonical junction mRNA decrease, read-out: MYB CJ (decrease in canonical junction mRNA, IC50)): > 7.00 | pIC50 (MYB mRNA; canonical junction qPCR panel, Table 4, read-out: MYB IC50 (decrease in CJ mRNA levels)): > 7.00 | pIC50 (Target C): 6.00 to 7.00
SMILES: Cc1c(O)c(-c2ccc3cc(N4CCNC5(CC5)C4)cc(F)c3n2)cc2cn(C)nc12 [Compound 805, 5-(6-{4,7-diazaspiro[2.5]octan-7-yl}-8-fluoroquinolin-2-yl)-2,7-dimethylindazol-6-ol]
AC50 (HTT mRNA; RT-qPCR, HTT alternative junction mRNA increase, read-out: HTT AJ (increase in alternative junction mRNA, AC50)): 100 to 1000 nM | AC50 (MYB mRNA; RT-qPCR, MYB alternative junction mRNA increase, read-out: MYB AJ (increase in alternative junction mRNA, AC50)): < 100 nM
